Laboratory results reported in patent US20220387365A1, “TUCARESOL DERIVATIVES AND USES THEREOF” (BeyondSpring Pharmaceuticals, Inc., priority 2019, published 2022).
One block for each compound: values may come before it.

Experiments:
[1] = Intravenous and oral dosing pharmacokinetic screen, plasma concentration by LC/MS/MS; parameters: species or system C57BL/6 mice; details: in vivo; for concentration at 0.083 h / concentration at 0.25 h / concentration at 0.5 h / concentration at 2 h / concentration at 4 h / concentration at 1 h / concentration at 8 h / concentration at 24 h: B02 concentration
Procedure: (§1) Tucaresol, Compound B02, Compound C01, Compound C02-1, and Compound C02 were dosed once, by IV bolus (3 mg/kg in 20% hydroxyprophyl-13-cyclodextrin with 1 eq NaOH) or PO (10 mg/kg in 1% carboxymethylcellulose/0.1% tween-80 in water), to non-fasted male C57BL/6 mice. Animals were bled from the dorsal metatarsal vein (from the heart for 24 hour time point) for K2-EDTA plasma 0.083 (for IV only), 0.25, 0.5, 1, 2, 4, 8, and 24 hours after dosing. The plasma concentration of the dosed tucaresol or compound were measured by LC/MS/MS (I-CMS-8060 instrument for MS). PK parameters were then calculated with WinNonlin 6.1. For Compounds C01, CO2 and CO2-1, stability in C57BL/6 K2EDTA plasma was also evaluated at 22° C. over 1 hour by utilizing LC.

[2] = Stability in C57BL/6 K2EDTA plasma at 22° C. over 1 hour by LC; type: in vitro ADME, mouse; details: for mouse plasma stability (in words): 22° C.; for Remaining %: mouse plasma, 2,000 ng/mL, 22°C
Procedure: as §1
Compounds C01 and C02-1 are unstable at 22° C.

[3] = male, C57BL/6, mouse, iv, 3 mg/kg, 0.083 h
[4] = male, C57BL/6, mouse, iv, 3 mg/kg, 0.25 h
[5] = male, C57BL/6, mouse, iv, 3 mg/kg, 2 h
[6] = male, C57BL/6, mouse, iv, 3 mg/kg, 4 h
[7] = male, C57BL/6, mouse, iv, 3 mg/kg, 8 h
[8] = male, C57BL/6, mouse, iv, 3 mg/kg
[9] = male, C57BL/6, mouse, iv, 3 mg/kg, Mean
[10] = male, C57BL/6, mouse, po, 10 mg/kg, 0.25 h
[11] = male, C57BL/6, mouse, po, 10 mg/kg, 0.5 h
[12] = male, C57BL/6, mouse, po, 10 mg/kg, 1 h
[13] = male, C57BL/6, mouse, po, 10 mg/kg, 2 h
[14] = male, C57BL/6, mouse, po, 10 mg/kg, 4 h
[15] = male, C57BL/6, mouse, po, 10 mg/kg, 8 h
[16] = male, C57BL/6, mouse, po, 10 mg/kg
[17] = male, C57BL/6, mouse, po, 10 mg/kg, Mean
[18] = male, C57BL/6, mouse, iv, 3 mg/kg, 0.5 h
[19] = male, C57BL/6, mouse, iv, 3 mg/kg, 1 h

- AUClast/D ([1]; male, C57BL/6, mouse): 24.3 ng·h/mL per mg/kg
- T1/2 ([1]; male, C57BL/6, mouse): 5.49 h
- Tmax ([1]; male, C57BL/6, mouse): 5.42 h
- Tucaresol plasma concentration, Mean [1, 3]: 12.5 ng/mL
- Tucaresol plasma concentration, Mean [1, 4]: 6.01 ng/mL
- Tucaresol plasma concentration, Mean [1, 5]: 4.30 ng/mL
- Tucaresol plasma concentration, Mean [1, 6]: 7.04 ng/mL
- Tucaresol plasma concentration, Mean [1, 7]: 8.52 ng/mL
- concentration at 0.083 h [1, 8]: 3220 ng/mL
- concentration at 0.25 h [1, 8]: 1740 ng/mL
- concentration at 0.5 h [1, 8]: 335 ng/mL
- concentration at 2 h [1, 8]: 179 ng/mL
- concentration at 4 h [1, 8]: 43.4 ng/mL
- concentration at 0.083 h [1, 9]: 3050 ng/mL
- concentration at 0.25 h [1, 9]: 1340 ng/mL
- concentration at 0.5 h [1, 9]: 283 ng/mL
- concentration at 1 h [1, 9]: 48.3 ng/mL
- concentration at 2 h [1, 9]: 187 ng/mL
- concentration at 4 h [1, 9]: 54 ng/mL
- concentration at 8 h [1, 9]: 18 ng/mL
- Tucaresol plasma concentration, Mean [1, 10]: 16.2 ng/mL
- Tucaresol plasma concentration, Mean [1, 11]: 9.3 ng/mL
- Tucaresol plasma concentration, Mean [1, 12]: 5.54 ng/mL
- Tucaresol plasma concentration, Mean [1, 13]: 11.0 ng/mL
- Tucaresol plasma concentration, Mean [1, 14]: 15.7 ng/mL
- Tucaresol plasma concentration, Mean [1, 15]: 28.4 ng/mL
- concentration at 0.25 h [1, 16]: 5780 ng/mL
- concentration at 0.5 h [1, 16]: 3370 ng/mL
- concentration at 4 h [1, 16]: 468 ng/mL
- concentration at 8 h [1, 16]: 114 ng/mL
- concentration at 24 h [1, 16]: 6.93 ng/mL
- concentration at 0.25 h [1, 17]: 4260 ng/mL
- concentration at 0.5 h [1, 17]: 2650 ng/mL
- concentration at 1 h [1, 17]: 674 ng/mL
- concentration at 2 h [1, 17]: 478 ng/mL
- concentration at 4 h [1, 17]: 412 ng/mL
- concentration at 8 h [1, 17]: 152 ng/mL
- concentration at 24 h [1, 17]: 10.5 ng/mL
SMILES: CO/N=C/c1c(O)cccc1OCc1ccc(C(=O)O)cc1 [Compound B02, (E)−4+((3-hydroxy-2-((methoxyimino)methyl)phenoxy)methyl)benzoic acid]

SMILES: CC(=O)Oc1cccc(OCc2ccc(C(=O)O)cc2)c1C=O [Compound C01, 4-((3-acetoxy-2-formylphenoxy)methyl)benzoic acid]
- mouse plasma stability (in words) [2]: unstable
- Remaining % ([2]; 0 min): 100%
- Remaining % ([2]; 5 min): 15.0%
- Remaining % ([2]; 15 min): 1.07%
- AUClast/D ([1]; male, C57BL/6, mouse): 4.24 ng·h/mL per mg/kg
- F ([1]; male, C57BL/6, mouse): 0.333%
- T1/2 ([1]; male, C57BL/6, mouse): 4.24 h
- Tmax ([1]; male, C57BL/6, mouse): 0.333 h
- Concentration, Compound B02 IV Plasma concentration-time data, Mean [1, 3]: 1021 ng/mL
- Concentration, Compound B02 IV Plasma concentration-time data, Mean [1, 4]: 691 ng/mL
- Concentration, Compound B02 IV Plasma concentration-time data, Mean [1, 18]: 465 ng/mL
- Concentration, Compound B02 IV Plasma concentration-time data, Mean [1, 19]: 316 ng/mL
- Concentration, Compound B02 IV Plasma concentration-time data, Mean [1, 5]: 201 ng/mL
- Concentration, Compound B02 IV Plasma concentration-time data, Mean [1, 6]: 116 ng/mL
- Concentration, Compound B02 IV Plasma concentration-time data, Mean [1, 7]: 60.9 ng/mL
- tucaresol exposure in plasma (in words) ([1]; male, C57BL/6, mouse, po): significant but lower tucaresol exposure than Compound C02 dosing
- Concentration, Compound B02 PO Plasma concentration-time data, Mean [1, 10]: 643 ng/mL
- Concentration, Compound B02 PO Plasma concentration-time data, Mean [1, 11]: 512 ng/mL
- Concentration, Compound B02 PO Plasma concentration-time data, Mean [1, 12]: 386 ng/mL
- Concentration, Compound B02 PO Plasma concentration-time data, Mean [1, 13]: 302 ng/mL
- Concentration, Compound B02 PO Plasma concentration-time data, Mean [1, 14]: 191 ng/mL
- Concentration, Compound B02 PO Plasma concentration-time data, Mean [1, 15]: 107 ng/mL
- Concentration, Compound B02 PO Plasma concentration-time data, Mean ([1]; male, C57BL/6, mouse, po, 10 mg/kg, 24 h): 7.50 ng/mL
- tucaresol exposure in plasma (in words) ([1]; mouse, po): significant exposure to tucaresol in plasma

- mouse plasma stability (in words) [2]: unstable
- Remaining % ([2]; 0 min): 100%
- Remaining % ([2]; 5 min): 18.9%
- Remaining % ([2]; 15 min): 16.7%
- Remaining % ([2]; 30 min): 6.56%
- Remaining % ([2]; 60 min): 2.37%
- AUClast/D ([1]; male, C57BL/6, mouse): 161 ng·h/mL per mg/kg
- T1/2 ([1]; male, C57BL/6, mouse): 13.8 h
- Tmax ([1]; male, C57BL/6, mouse): 3.33 h
- Tucaresol concentration, Mean [1, 3]: 17.3 ng/mL
- Tucaresol concentration, Mean [1, 4]: 52.9 ng/mL
- Tucaresol concentration, Mean [1, 18]: 79.9 ng/mL
- Tucaresol concentration, Mean [1, 19]: 60.5 ng/mL
- Tucaresol concentration, Mean [1, 5]: 49.3 ng/mL
- Tucaresol concentration, Mean [1, 6]: 36.0 ng/mL
- Tucaresol concentration, Mean [1, 7]: 18.2 ng/mL
- Tucaresol concentration, Mean [1, 11]: 15.9 ng/mL
- Tucaresol concentration, Mean [1, 12]: 49.9 ng/mL
- Tucaresol concentration, Mean [1, 13]: 103 ng/mL
- Tucaresol concentration, Mean [1, 14]: 114 ng/mL
- Tucaresol concentration, Mean [1, 15]: 83.0 ng/mL
SMILES: COC(=O)c1ccc(COc2cccc(O)c2C=O)cc1 [Compound C02-1, methyl 4-((2-formyl-3-hydroxyphenoxy)methyl)benzoate]
